From publication PMC6733959, “Synthesis and Evaluations of Novel Apocynin Derivatives as Anti-Glioma Agents” (Frontiers in Pharmacology, 2019)

What was measured:
[1] = Transport experiment in the in vitro BBB cell model; assay type: in vitro ADME; conditions: Sprague-Dawley, rat, apical to basolateral, mean ± SD (n = 3-4), read-out: Papp × 10^−6; for Papp at 90 min, 100 μM: C0 100 μM; for Papp at 90 min, 20 μM: C0 20 μM
Procedure: (§1) Rat brain microvascular endothelial cells (BMECs) were separated from the cerebral cortex of 18-day-old male Sprague-Dawley rats as described previously ([Biegel et al., 1995]). Briefly, the cerebral cortical tissues were dissected from meninges after the rats were sacrificed, then the tissues were homogenated in physiological buffer solution (pH 7.4). After centrifugation, the pellets were collected, and the microvascular segments were then digested with 0.1% collagenase II at 37°C for 1 h. […] The second passage was used for co-culture of BBB cellular models.
Astrocytes were separated from the cerebral cortex of newborn Sprague-Dawley rats (1–2 days) as described previously ([Jeliazkova-Mecheva and Bobilya, 2003]). The brain tissues (removal of the meninges and blood vessel) were minced and mechanical homogenized and then digested with 0.25% trypsin-EDTA at 37°C for 10 min.
The in vitro BBB cell model was constructed in the Transwell 24well plate ([…], Millipore, USA). Before the experiment, the transwell filters were coated with matrigel matrix. The isolated rat astroglias were seeded onto one side of polycarbonate inserts (5 × 10^4 cells/insert). After 3 to 5 days, the rat BMECs were seeded at a density of 1.5 × 10^5 cells/insert onto the opposite side of the inserts to produce rat BMEC monolayers. The in vitro BBB cell model was formed 3 to 4 days. Trans-epithelial electrical resistance (TEER) measurements were performed everyday after the co-cultures formed until the TEER value increased to […] ([Yang et al., 2014]) ( Figure 2C ).
The transport experiments were performed by adding 400 μl HBSS containing the compounds to the apical side (AP), with 600μl HBSS to the basolateral side (BL) at the same time. Samples (60 μl) were collected from the BL chamber at the time points of 15, 30, 60, 90, 120, and 180 min, and the corresponding volume of HBSS buffer was immediately added into the BL chamber. The samples were precipitated by methanol, and the concentrations of the compounds in the samples were determined by high-performance liquid chromatography (HPLC). The HPLC conditions were as follows: Agilent TC-C18 column (250 × 4.6 mm; 5 μm), methanol 1% ethanoic acid mobile phase (from 10:90 to 90:10, v/v), with gradient elution at a flow rate of 1.0 ml/min. The detection wavelength was 275 nm for these compounds. The run time was 20 min. The apparent permeability coefficients (P app) were calculated from the following formula: P app = (∆Q/∆t)/(A × C 0), where ∆Q/∆t is the linear appearance rate of the compound on the BL side (μmol/s), A is the surface area of the cell monolayer (cm^2), and C 0 is the initial concentration of the drug on the AP side (μmol/L).

[2] = cited from earlier work; for BBB penetration rate relative to morphine: ref Oldendorf et al., 1972
rat BMECs = assay: Cytotoxicity of apocynin derivatives on rat BMECs (MTT, 24 h); assay type: cell-based; conditions: 100 μM, vs control, P < 0.05
Procedure: as §1
Rat BMECs were collected and seeded into 96-well culture plates at a density of 7.5 × 10^3 cells/well overnight. The cells were treated with different concentrations of the compounds (10, 20, and 100 μM) for 24 h, respectively. Then, 20-μl MTT (5 mg/ml) in fresh medium was added to each well and incubated for another 4 h. Finally, 150μl dimethyl sulfoxide (DMSO) was added to dissolve formazan crystals, and the absorbance was detected at 490 nm in a multiwall-plate reader (BioTek ELx800).

rat C6 glioma cells = assay: Anti-glioma MTT assay, C6 cells; assay type: cell-based; conditions: for Anti-proliferation effect on C6 cells (first screening): 10, 20, 100 μM, compared with D1, P < 0.05; for IC50: Rattus norvegicus, C6 cells
Procedure: (§2) The anti-glioma effects of these compounds were evaluated by MTT assay in rat C6 glioma cells, human glioma U87 and U251 cells, and BMECs cells. Brieﬂy, cells were seeded at the density of 4,000 cells/well in 96-well plates overnight. For the first screening, the cells were incubated with 10, 20, 100 μM compounds for 48 h. Then cell viabilities were detected by MTT assay as described above. For the second screening, the cells were incubated with 6.25-, 12.5-, 25-, 50-, and 100μM compounds for 48 and 96 h, and then detected by MTT assay. The OD of each well was measured at 490 nm on an ELISA microplate reader. The inhibitory rates and IC50 values were calculated.

human glioma U87 cells = assay: Anti-glioma MTT assay, U87 cells; assay type: cell-based; conditions: for Anti-proliferation effect on U87 cells (first screening): 10, 20, 100 μM, compared with D1, P < 0.05; for IC50: Homo sapiens, U-87 MG, U87 cells
Procedure: as §2

human glioma U251 cells = assay: Anti-glioma MTT assay, U251 cells; assay type: cell-based
Procedure: as §2

BMECs = assay: MTT assay on normal BMECs (48 and 96 h); assay type: cell-based; conditions: Rattus norvegicus
Procedure: as §1, §2

C6 glioma = assay: Rat C6 glioma model; assay type: in vivo; conditions: C6 glioma-bearing Wistar rats, 25 mg/kg i.p. daily; for Tumor volume vs control group: MRI 13 days after treatment
Procedure: C6 glioma model was established as previously reported ([Xu etal., 2016]). The C6 glioma cells in the logarithmic growth phase were collected for implantation. Male Wistar rats (male, 160–180g) were anesthetized with 10% chloral hydrate, and then a hole (1 mm diameter) was drilled in the cranial bone. C6 cells in PBS were injected slowly (3 × 10^6 cells/rat).
Tumors in the brains of the rats were detected by Bruker 7.0 T Micro-MRI using a T2W RARE sequence (TR/TE 3000/15 ms; slice thickness, 1.0 mm; flip angle, 180°; Matrix 256×256; slice gap, 1.0 mm; FOV, 33×33 mm; time, 4.8 min) 7 days after implantation. Tumor volumes (V) were calculated by the following formula: V = (4/3 × π × LHW)/8, where L is the maximum anteroposterior diameter, H and W are the height and width. Then the rats were sacrificed, and the brain tissues were fixed with formalin, embedded in paraffin, sectioned, and subjected to hematoxylin/eosin (HE) staining and immunohistochemical staining for glial fibrillary acidic protein (GFAP) as previously described ([Xu et al., 2016]). The sections from each animal were analyzed by a pathologist. Only rats with maximum intracerebral tumor diameter of >5.0 mm were used.
After the successful implantation, the rats were randomly divided into […] and treated with different drugs by intraperitoneal injection daily: control group (PBS, n = 6), TMZ group (25 mg/kg, n = 6), D14 group (25 mg/kg, n = 6), and D31 group (25 mg/kg, n = 6). The body weights were recorded everyday after administration. Thirteen days after treatment, brain tumors in the rats were detected by Bruker 7.0 T Micro-MRI as described above. Tumor volumes were calculated and recorded as above.

NADPH oxidase (NOX) [3] = assay: NOX activity determination, C6 cells; assay type: cell-based, rat; conditions: 20 and 50 μM
Procedure: (§3) The effects of candidate drug on NOX activities were measured using cytochrome c reductase (NADPH) Assay Kit (Sigma-Aldrich, St. Louis, MO, USA). Brieﬂy, after the compound treatment (20, 50 μM), the cells were collected and homogenized in an isotonic buffer ([…]), and centrifuged at 1,000 g to obtain the post-nuclear supernatants. Then 50μl samples were added to 950μl working solution (at 25°C) in a 1ml cuvette and mixed by inversion. Then 20μl cytochrome c oxidase inhibitor solution was added. After reaction with 100 μl NADPH solution, the cytochrome c absorbance was monitored at 550 nm by a spectrophotometer.

NADPH oxidase (NOX) [4] = assay: NOX activity determination, U87 cells; assay type: cell-based, human; conditions: 20 and 50 μM
Procedure: as §3

[5] = design: method as in Wang et al., 2008; conditions: ref Wang et al., 2008; cited from earlier work

Structure (SMILES): COc1cc(C(=O)CNc2ccc(F)cc2)ccc1OCc1ccccc1 [Compound D6, 1-(4-(Benzyloxy)-3-Methoxyphenyl)-2-((4-Fluorophenyl)Amino) Ethan-1-One]
- Papp at 90 min, 100 μM [1]: 8.68 ± 0.45 ×10⁻⁶ cm/s

Structure (SMILES): CCC1(c2ccccc2)C(=O)NC(=O)NC1=O [Phenobarbital, 5-ethyl-5-phenylbarbituric acid]
- BBB penetration rate relative to barbituric acid ([2]; ref Liu et al., 2007): increased BBB penetration rate

Structure (SMILES): CC(=O)Oc1ccc2c3c1O[C@H]1[C@@H](OC(C)=O)C=C[C@H]4[C@@H](C2)N(C)CC[C@@]341 [heroin, diacetylmorphine]
- BBB penetration rate relative to morphine [2]: 100 times

Structure (SMILES): Cn1nnc2c(C(N)=O)ncn2c1=O [TMZ, Temozolomide, reference compound]
- Effect on cell viability of rat BMECs (rat BMECs): significantly inhibit the cell viability
- Papp at 90 min, 20 μM [1]: 7.74 ± 0.34 ×10⁻⁶ cm/s
- Anti-proliferation effect on C6 cells (first screening) (rat C6 glioma cells; 48 h): significant anti-proliferation effects
- IC50 (rat C6 glioma cells; 48 h): 51.1 µM
- IC50 (rat C6 glioma cells; 96 h): 36.8 µM
- Anti-proliferation effect on U87 cells (first screening) (human glioma U87 cells; 48 h): significant anti-proliferation effects
- IC50 (human glioma U87 cells; 48 h): 54.1 µM
- IC50 (human glioma U87 cells; 96 h): 28.4 µM
- IC50 (human glioma U251 cells; U-251, 48 h): 48.1 µM
- IC50 (human glioma U251 cells; U-251, 96 h): 15.3 µM
- IC50 (BMECs; 48 h): 94.5 µM
- IC50 (BMECs; 96 h): 54.4 µM
- Body weight changes vs control group (C6 glioma): no obvious body weight changes
- Tumor volume vs control group (C6 glioma): significantly decreased

Structure (SMILES): COc1cc(C(C)=O)ccc1O [Compound D1, 4-hydroxy-3-methoxyacetophenone, reference compound]
- Effect on cell viability of rat BMECs (rat BMECs): significantly inhibit the cell viability
- Papp at 90 min, 20 μM [1]: 4.95 ± 0.39 ×10⁻⁶ cm/s
- Effect on NOX activities vs control (NADPH oxidase (NOX) [3]): significantly inhibited
- Effect on NOX activities vs control (NADPH oxidase (NOX) [4]): significantly inhibited
- Amount in the brain tissue relative to that present in the blood [5]: < 8%

Structure (SMILES): COc1cc(NCC(=O)c2ccc(O)c(OC)c2)cc(OC)c1 [Compound D16, 2-((3,5-Dimethoxyphenyl)Amino)-1-(4-Hydroxy-3-Methoxyphenyl)Ethan-1-One]
- Effect on cell viability of rat BMECs (rat BMECs): significantly inhibit the cell viability
- Papp at 90 min, 20 μM [1]: 2.54 ± 0.58 ×10⁻⁶ cm/s

Structure (SMILES): COc1cc(C(=O)CNc2ccccc2)ccc1O [Compound D13, 1-(4-Hydroxy-3-Methoxyphenyl)-2-(Phenylamino)Ethan-1-One]
- Effect on cell viability of rat BMECs (rat BMECs): significantly inhibit the cell viability
- Papp at 90 min, 20 μM [1]: 5.41 ± 0.52 ×10⁻⁶ cm/s
- Anti-proliferation effect on C6 cells (first screening) (rat C6 glioma cells; 48 h): significant anti-proliferation effects

Structure (SMILES): COc1cc(C(=O)CNc2ccccc2)ccc1OCc1ccccc1 [Compound D5, 1-(4-(Benzyloxy)-3-Methoxyphenyl)-2-(Phenylamino)Ethan-1-One]
- Papp at 90 min, 100 μM [1]: 10.3 ± 0.31 ×10⁻⁶ cm/s

Structure (SMILES): COc1cc(C(=O)CNc2ccc(F)cc2F)ccc1O [Compound D21, 2-((2,4-Difluorophenyl)Amino)-1-(4-Hydroxy-3-Methoxyphenyl)Ethan-1-One]
- Papp at 90 min, 100 μM [1]: 6.08 ± 0.65 ×10⁻⁶ cm/s

Structure (SMILES): COc1cc(C(=O)CSCc2ccccc2)ccc1O [Compound D33, 2-(Benzylthio)-1-(4-Hydroxy-3-Methoxyphenyl)Ethan-1-One]
- Effect on cell viability of rat BMECs (rat BMECs): significantly inhibit the cell viability
- Papp at 90 min, 20 μM [1]: 9.58 ± 2.35 ×10⁻⁶ cm/s
- Anti-proliferation effect on C6 cells (first screening) (rat C6 glioma cells; 48 h): significant anti-proliferation effects

Structure (SMILES): COc1ccc2c3c1O[C@H]1[C@@H](O)C=C[C@H]4[C@@H](C2)N(C)CC[C@@]341 [codeine]
- BBB penetration rate relative to morphine [2]: 10 times

Structure (SMILES): COc1cc(C(=O)CNc2ccc(F)cc2)ccc1O [Compound D14, 2-((4-Fluorophenyl)amino)-1-(4-Hydroxy-3-Methoxyphenyl)Ethan-1-One]
- Effect on cell viability of rat BMECs (rat BMECs): significantly inhibit the cell viability
- Papp at 90 min, 20 μM [1]: 4.24 ± 1.3 ×10⁻⁶ cm/s
- Anti-proliferation effect on C6 cells (first screening) (rat C6 glioma cells; 48 h): significant anti-proliferation effects
- IC50 (rat C6 glioma cells; 48 h): 37.2 µM
- IC50 (rat C6 glioma cells; 96 h): 22.9 µM
- Anti-proliferation effect on U87 cells (first screening) (human glioma U87 cells; 48 h): significant anti-proliferation effects
- IC50 (human glioma U87 cells; 48 h): 61.6 µM
- IC50 (human glioma U87 cells; 96 h): 60.1 µM
- IC50 (human glioma U251 cells; U-251, 48 h): 71.6 µM
- IC50 (human glioma U251 cells; U-251, 96 h): 34.5 µM
- IC50 (BMECs; 48 h): > 100 µM
- IC50 (BMECs; 96 h): 78.2 µM
- Body weight changes vs control group (C6 glioma): no obvious body weight changes
- Tumor volume vs control group (C6 glioma): no obvious growth inhibitory effects

Structure (SMILES): COc1cc(C(=O)CSCc2ccc(F)cc2)ccc1O [Compound D34, 2-((4-Fluorobenzyl)Thio)-1-(4-Hydroxy-3-Methoxyphenyl)Ethan-1-One]
- Effect on cell viability of rat BMECs (rat BMECs): significantly inhibit the cell viability
- Papp at 90 min, 20 μM [1]: 11.9 ± 1.53 ×10⁻⁶ cm/s
- Anti-proliferation effect on C6 cells (first screening) (rat C6 glioma cells; 48 h): significant anti-proliferation effects

Structure (SMILES): COc1cc(C(=O)CNc2ccc(Cl)cc2)ccc1O [Compound D22, 2-((4-Chlorophenyl)Amino)-1-(4-Hydroxy-3-Methoxyphenyl)Ethan-1-One]
- Papp at 90 min, 100 μM [1]: 5.42 ± 0.58 ×10⁻⁶ cm/s
